Experimental data reported in US8592629B2, “Sulfonamide derivatives as Nav 1.7 inhibitors” (Pfizer Limited, priority 2010, dated 2013).

molecular target: T1, Nav1.7 (or SCN9A) channel (Homo sapiens, UniProt Q15858); assay: Nav1.7 (hSCN9A) block in HEK cells, PatchXpress 7000 automated electrophysiology, estimated IC50 (EIC50); format: cell-based; settings: PatchXpress assay; HEK cells stably transfected with hSCN9A, voltage-clamped at V1/2 of inactivation
T1 construct: expressed in transfected cells
Description: The ability of the compounds of formula (I) to block the Nav1.7 (or SCN9A) channel were measured using the assay described below.
Human Embryonic Kidney (HEK) cells were transfected with an hSCN9A construct using lipofectamine reagent (Invitrogen), using standard techniques. Cells stably expressing the hSCN9A constructs were identified by their resistance to G-418 (400 μg/ml). Clones were screened for expression using the whole-cell voltage-clamp technique.
HEK cells stably transfected with hSCN9A were maintained in DMEM medium supplemented with 10% heat-inactivated fetal bovine serum and 400 μg/ml G-418 in an incubator at 37° C. with a humidified atmosphere of 10% CO2. For HTS, cells were harvested from flasks by trypsinization and replated in an appropriate multi-well plate (typically 96 or 384 wells/plate) such that confluence would be achieved within 24 hours of plating. For electrophysiological studies, cells were removed from the culture flask by brief trypsinization and re-plated at low density onto glass cover slips. Cells were typically used for electrophysiological experiments within 24 to 72 hours after plating.
HEK cells stably transfected with hSCN9A were viewed under Hoffman contrast optics and placed in front of an array of flow pipes emitting either control or compound-containing extracellular solutions. All compounds were dissolved in dimethyl sulfoxide to make 10 mM stock solutions, which were then diluted into extracellular solution to attain the final concentrations desired. […] The voltage-dependence of inactivation was determined by applying a series of depolarizing prepulses (8 sec long in 10 mV increments) from a negative holding potential. The voltage was then immediately stepped to 0 mV to assess the magnitude of the sodium current. Currents elicited at 0 mV were plotted as a function of prepulse potential to allow estimation of the voltage at which 50% of the channels were inactivated (midpoint of inactivation or V1/2). Compounds were tested for their ability to inhibit hSCN9A sodium channels by activating the channel with a 20 msec voltage step to 0 mV following an 8 second conditioning prepulse to the empirically determined V1/2. Compound effect (% inhibition) was determined by difference in current amplitude before and after application of test compounds. For ease of comparison, “estimated IC-50” (EIC50) values were calculated from single point electrophysiology data by the following equation, (tested concentration, uM) X (100-% inhibition/% inhibition). Inhibition values <20% and >80% were excluded from the calculation.
Electrophysiological assays were conducted with PatchXpress 7000 hardware and associated software (Molecular Devices Corp). All assay buffers and solutions were identical to those used in conventional whole-cell voltage clamp experiments described above. hSCN9A cells were grown as above to 50%-80% confluency and harvested by trypsinization. Trypsinized cells were washed and resuspended in extracellular buffer at a concentration of 1×10^6 cells/ml. The onboard liquid handling facility of the PatchXpress was used for dispensing cells and application of test compounds. Determination of the voltage midpoint of inactivation was as described for conventional whole-cell recordings. Cells were then voltage-clamped to the empirically determined V1/2 and current was activated by a 20 msec voltage step to 0 mV.
Compounds of the Examples were tested in the assays described above and found to have the Nav1.7 EIC50 (μM) values specified in the table below. All data are derived from the PatchXpress assay unless explicitly stated otherwise.

T1 sequence (Q15858 whole entry): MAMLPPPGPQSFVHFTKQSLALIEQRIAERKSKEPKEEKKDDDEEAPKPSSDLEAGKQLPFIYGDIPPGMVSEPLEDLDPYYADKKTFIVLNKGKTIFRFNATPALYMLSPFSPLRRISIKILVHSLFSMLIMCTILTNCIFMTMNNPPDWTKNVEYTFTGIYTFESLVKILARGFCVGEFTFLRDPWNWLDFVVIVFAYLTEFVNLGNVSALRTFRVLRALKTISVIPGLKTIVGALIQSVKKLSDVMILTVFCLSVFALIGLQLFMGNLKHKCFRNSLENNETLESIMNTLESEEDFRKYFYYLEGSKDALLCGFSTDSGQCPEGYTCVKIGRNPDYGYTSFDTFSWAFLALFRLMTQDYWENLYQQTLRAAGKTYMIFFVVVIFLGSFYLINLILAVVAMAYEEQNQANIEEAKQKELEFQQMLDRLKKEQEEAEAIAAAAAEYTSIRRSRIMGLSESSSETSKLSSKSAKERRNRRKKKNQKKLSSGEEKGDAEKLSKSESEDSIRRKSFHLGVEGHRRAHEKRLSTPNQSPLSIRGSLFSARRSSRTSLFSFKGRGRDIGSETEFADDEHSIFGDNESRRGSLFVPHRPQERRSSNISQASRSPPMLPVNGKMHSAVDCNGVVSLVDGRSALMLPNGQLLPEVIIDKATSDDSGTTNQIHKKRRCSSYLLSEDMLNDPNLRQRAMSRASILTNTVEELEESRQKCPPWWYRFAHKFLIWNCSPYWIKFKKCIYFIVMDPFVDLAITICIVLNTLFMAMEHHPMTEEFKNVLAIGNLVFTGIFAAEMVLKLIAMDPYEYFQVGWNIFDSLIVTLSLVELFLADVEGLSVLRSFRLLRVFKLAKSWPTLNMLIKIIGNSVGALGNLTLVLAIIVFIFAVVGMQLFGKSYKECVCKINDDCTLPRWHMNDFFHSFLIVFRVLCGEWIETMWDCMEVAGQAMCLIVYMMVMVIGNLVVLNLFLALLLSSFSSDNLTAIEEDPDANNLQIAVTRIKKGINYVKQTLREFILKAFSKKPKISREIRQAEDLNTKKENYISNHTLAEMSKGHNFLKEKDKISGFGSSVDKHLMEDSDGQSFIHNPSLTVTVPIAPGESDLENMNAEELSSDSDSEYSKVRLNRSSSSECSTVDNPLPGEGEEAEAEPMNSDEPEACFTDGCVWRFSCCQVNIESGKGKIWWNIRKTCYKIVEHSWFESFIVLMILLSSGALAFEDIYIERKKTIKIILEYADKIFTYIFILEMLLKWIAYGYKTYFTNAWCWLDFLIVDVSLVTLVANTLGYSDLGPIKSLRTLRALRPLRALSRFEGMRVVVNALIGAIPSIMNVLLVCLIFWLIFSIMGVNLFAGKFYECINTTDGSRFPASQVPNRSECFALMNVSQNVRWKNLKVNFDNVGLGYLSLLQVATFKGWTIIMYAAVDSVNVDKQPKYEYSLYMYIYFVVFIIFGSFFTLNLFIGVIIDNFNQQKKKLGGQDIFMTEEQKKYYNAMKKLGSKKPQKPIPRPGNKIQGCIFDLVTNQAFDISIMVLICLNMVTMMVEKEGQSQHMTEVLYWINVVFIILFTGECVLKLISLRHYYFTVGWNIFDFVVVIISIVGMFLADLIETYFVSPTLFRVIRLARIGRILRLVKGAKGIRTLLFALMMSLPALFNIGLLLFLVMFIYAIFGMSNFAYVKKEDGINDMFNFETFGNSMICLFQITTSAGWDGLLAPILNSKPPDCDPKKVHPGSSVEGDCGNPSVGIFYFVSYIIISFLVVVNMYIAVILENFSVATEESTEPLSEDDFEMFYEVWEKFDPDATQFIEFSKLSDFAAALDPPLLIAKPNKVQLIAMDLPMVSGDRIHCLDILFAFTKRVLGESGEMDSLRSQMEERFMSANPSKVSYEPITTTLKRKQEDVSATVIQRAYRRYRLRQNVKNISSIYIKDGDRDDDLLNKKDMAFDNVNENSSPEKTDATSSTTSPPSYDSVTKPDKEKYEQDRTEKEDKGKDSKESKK

Compound | IC50
CC(C)Oc1ncc(Oc2ccc(C(=O)NS(C)(=O)=O)c(F)c2)cc1Cl [Example 36, 4-[(5-chloro-6-isopropoxypyridin-3-yl)oxy]-2-fluoro-N-(methylsulfonyl)benzamide] | 310 nM
CS(=O)(=O)NC(=O)c1cc(Cl)c(Oc2cnc(OC3CCOCC3)c(Cl)c2)cc1F [Example 37, 5-chloro-4-{[5-chloro-6-(tetrahydro-2H-pyran-4-yloxy)pyridin-3-yl]oxy}-2-fluoro-N-(methylsulfonyl)benzamide] | 140 nM
CC(C)COc1ncc(Oc2cc(F)c(C(=O)NS(C)(=O)=O)cc2Cl)cc1Cl [Example 38, 5-chloro-4-[(5-chloro-6-isobutoxypyridin-3-yl)oxy]-2-fluoro-N-(methylsulfonyl)benzamide] | 7.5 nM
CC(C)Oc1ncc(Oc2cc(F)c(C(=O)NS(C)(=O)=O)cc2Cl)cc1Cl [Example 39, 5-chloro-4-[(5-chloro-6-isopropoxypyridin-3-yl)oxy]-2-fluoro-N-(methylsulfonyl)benzamide] | 25 nM
CC(Oc1ncc(Oc2cc(F)c(C(=O)NS(C)(=O)=O)cc2Cl)cc1Cl)C(F)(F)F (centres unmarked) [Example 43, 5-chloro-4-{[5-chloro-6-(2,2,2-trifluoro-1-methylethoxy)pyridin-3-yl]oxy}-2-fluoro-N-(methylsulfonyl)benzamide] | 11 nM
CC(C)Cc1ncc(Oc2cc(F)c(C(=O)NS(C)(=O)=O)cc2F)cc1Cl [Example 49, 4-[(5-chloro-6-isobutylpyridin-3-yl)oxy]-2,5-difluoro-N-(methylsulfonyl)benzamide] | 760 nM
CS(=O)(=O)NC(=O)c1cc(F)c(Oc2cnc(C3CC3)c(Cl)c2)cc1F [Example 50, 4-[(5-chloro-6-cyclopropylpyridin-3-yl)oxy]-2,5-difluoro-N-(methylsulfonyl)benzamide] | 160 nM
CC(C)(C)c1ncc(Oc2cc(F)c(C(=O)NS(C)(=O)=O)cc2F)cc1Cl [Example 51, 4-[(6-tert-butyl-5-chloropyridin-3-yl)oxy]-2,5-difluoro-N-(methylsulfonyl)benzamide] | 270 nM
CS(=O)(=O)NC(=O)c1cc(Cl)c(Oc2cnc(OC3CC3)c(Cl)c2)cc1F [Example 55, 5-chloro-4-{[5-chloro-6-(cyclopropyloxy)pyridin-3-yl]oxy}-2-fluoro-N-(methylsulfonyl)benzamide] | 48 nM
CS(=O)(=O)NC(=O)c1cc(Cl)c(Oc2cnc(OCC(F)(F)C(F)(F)F)c(Cl)c2)cc1F [Example 56, 5-chloro-4-{[5-chloro-6-(2,2,3,3,3-pentafluoropropoxy)pyridin-3-yl]oxy}-2-fluoro-N-(methylsulfonyl)benzamide] | 13 nM
CS(=O)(=O)NC(=O)c1cc(Cl)c(Oc2cnc(OCC(F)(F)F)c(Cl)c2)cc1F [Example 58, 5-chloro-4-{[5-chloro-6-(2,2,2-trifluoroethoxy)pyridin-3-yl]oxy}-2-fluoro-N-(methylsulfonyl)benzamide] | 23 nM
CS(=O)(=O)NC(=O)c1cc(F)c(Oc2cnc(OCCC(F)(F)F)c(Cl)c2)cc1F [Example 62, 4-{[5-chloro-6-(3,3,3-trifluoropropoxy)pyridin-3-yl]oxy}-2,5-difluoro-N-(methylsulfonyl)benzamide] | 240 nM
CC(C)(F)COc1ncc(Oc2cc(F)c(C(=O)NS(C)(=O)=O)cc2F)cc1Cl [Example 63, 4-{[5-chloro-6-(2-fluoro-2-methylpropoxy)pyridin-3-yl]oxy}-2,5-difluoro-N-(methylsulfonyl)benzamide] | 160 nM
CS(=O)(=O)NC(=O)c1cc(F)c(Oc2cnc(OC3CCC(F)(F)CC3)c(Cl)c2)cc1F [Example 65, 4-({5-chloro-6-[(4,4-difluorocyclohexyl)oxy]pyridin-3-yl}oxy)-2,5-difluoro-N-(methylsulfonyl)benzamide] | 650 nM

The remaining compounds from weak to strong by IC50, led by results:

IC50 | Compound
5500 nM | CC(C)Oc1ncc(Oc2cc(F)c(C(=O)NS(C)(=O)=O)cc2Cl)cn1 [Example 61, 5-chloro-2-fluoro-4-[(2-isopropoxypyrimidin-5-yl)oxy]-N-(methylsulfonyl)benzamide]
3500 nM | CC(C)(O)c1ncc(Oc2cc(F)c(C(=O)NS(C)(=O)=O)cc2Cl)cc1Cl [Example 48, 5-chloro-4-{[5-chloro-6-(1-hydroxy-1-methylethyl)pyridin-3-yl]oxy}-2-fluoro-N-(methylsulfonyl)benzamide]
680 nM | CC(C)Oc1ccc(Oc2cc(F)c(C(=O)NS(C)(=O)=O)cc2F)cn1 [Example 47, 2,5-difluoro-4-[(6-isopropoxypyridin-3-yl)oxy]-N-(methylsulfonyl)benzamide]
650 nM | CS(=O)(=O)NC(=O)c1cc(F)c(Oc2cnc(OCC(F)F)c(Cl)c2)cc1F [Example 66, 4-{[5-chloro-6-(2,2-difluoroethoxy)pyridin-3-yl]oxy}-2,5-difluoro-N-(methylsulfonyl)benzamide]
560 nM | CC(F)(F)c1ncc(Oc2cc(F)c(C(=O)NS(C)(=O)=O)cc2Cl)cc1Cl [Example 44, 5-chloro-4-{[5-chloro-6-(1,1-difluoroethyl)pyridin-3-yl]oxy}-2-fluoro-N-(methylsulfonyl)benzamide]
260 nM | CS(=O)(=O)NC(=O)c1cc(Cl)c(Oc2cnc(OC(CF)CF)c(Cl)c2)cc1F [Example 53, 5-chloro-4-({5-chloro-6-[2-fluoro-1-(fluoromethyl)ethoxy]pyridin-3-yl}oxy)-2-fluoro-N-(methylsulfonyl)benzamide]
190 nM | [2H]C(C)(C)Oc1ncc(Oc2cc(F)c(C(=O)NS(C)(=O)=O)cc2F)cc1Cl [Example 41, 4-({5-chloro-6-[2-d1-propan-2-yloxy]pyridin-3-yl}oxy)-2,5-difluoro-N-(methylsulfonyl)benzamide]
180 nM | CS(=O)(=O)NC(=O)c1cc(Cl)c(Oc2cnc(OC(F)F)c(Cl)c2)cc1F [Example 54, 5-chloro-4-{[5-chloro-6-(difluoromethoxy)pyridin-3-yl]oxy}-2-fluoro-N-(methylsulfonyl)benzamide]
160 nM | CS(=O)(=O)NC(=O)c1cc(Cl)c(Oc2cnc(OCC(F)F)c(Cl)c2)cc1F [Example 52, 5-chloro-4-{[5-chloro-6-(2,2-difluoroethoxy)pyridin-3-yl]oxy}-2-fluoro-N-(methylsulfonyl)benzamide]
140 nM | CC(C)C(F)(F)c1ncc(Oc2cc(F)c(C(=O)NS(C)(=O)=O)cc2Cl)cc1Cl [Example 60, 5-chloro-4-{[5-chloro-6-(1,1-difluoro-2-methylpropyl)pyridin-3-yl]oxy}-2-fluoro-N-(methylsulfonyl)benzamide]
130 nM | [2H]C([2H])([2H])C([2H])(Oc1ncc(Oc2cc(F)c(C(=O)NS(C)(=O)=O)cc2F)cc1Cl)C([2H])([2H])[2H] [Example 40, -({5-chloro-6-[d7-propan-2-yloxy]pyridin-3-yl}oxy)-2,5-difluoro-N-(methylsulfonyl)benzamide]
110 nM | CS(=O)(=O)NC(=O)c1cc(F)c(Oc2cnc(OCC(F)(F)C(F)F)c(Cl)c2)cc1F [Example 45, 4-{[5-chloro-6-(2,2,3,3-tetrafluoropropoxy)pyridin-3-yl]oxy}-2,5-difluoro-N-(methylsulfonyl)benzamide]
94 nM | CC(C)(F)COc1ncc(Oc2cc(F)c(C(=O)NS(C)(=O)=O)cc2Cl)cc1Cl [Example 57, 5-chloro-4-{[5-chloro-6-(2-fluoro-2-methylpropoxy)pyridin-3-yl]oxy}-2-fluoro-N-(methylsulfonyl)benzamide]
41 nM | CS(=O)(=O)NC(=O)c1cc(F)c(Oc2cnc(OCC3CC3)c(Cl)c2)cc1F [Example 35, 4-{[5-chloro-6-(cyclopropylmethoxy)pyridin-3-yl]oxy}-2,5-difluoro-N-(methylsulfonyl)benzamide]
28 nM | CS(=O)(=O)NC(=O)c1cc(F)c(Oc2cnc(OCC(F)(F)C(F)(F)F)c(Cl)c2)cc1F [Example 64, 4-{[5-chloro-6-(2,2,3,3,3-pentafluoropropoxy)pyridin-3-yl]oxy}-2,5-difluoro-N-(methylsulfonyl)benzamide]
